This passage reports IC50 results from patent US20230295119A1, “SUBSTITUTED PYRIDINES FOR THE TREATMENT OF INFLAMMATORY DISEASES” (GOSSAMER BIO SERVICES, INC., priority 2020, published 2023).

Test [1] concerns the target TYK2 JH2 domain (Homo sapiens (Human), UniProt P29597). Put plainly: TYK2 JH2 NanoBRET assay. The class given is binding. The following applies: Table 20, read-out: TYK2 IC50. In short, it runs like this: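 Tracer displacement measured by BRET ratio (acceptor over donor) in live HEK293T cells transfected with a NanoLuc-tagged TYK2 JH2 construct; cells co-exposed to test compound and 0.5 µM final K10 tracer for 2 h before substrate/extracellular inhibitor addition.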

The target in test [2] is human JAK1 (Homo sapiens (Human), UniProt P23458). The test can be described thus: JAK1 TR-FRET kinase assay. It counts as biochemical. As to conditions: TR-FRET, JAK1 2.5 nM.
Chain of human JAK1 (P23458 whole entry): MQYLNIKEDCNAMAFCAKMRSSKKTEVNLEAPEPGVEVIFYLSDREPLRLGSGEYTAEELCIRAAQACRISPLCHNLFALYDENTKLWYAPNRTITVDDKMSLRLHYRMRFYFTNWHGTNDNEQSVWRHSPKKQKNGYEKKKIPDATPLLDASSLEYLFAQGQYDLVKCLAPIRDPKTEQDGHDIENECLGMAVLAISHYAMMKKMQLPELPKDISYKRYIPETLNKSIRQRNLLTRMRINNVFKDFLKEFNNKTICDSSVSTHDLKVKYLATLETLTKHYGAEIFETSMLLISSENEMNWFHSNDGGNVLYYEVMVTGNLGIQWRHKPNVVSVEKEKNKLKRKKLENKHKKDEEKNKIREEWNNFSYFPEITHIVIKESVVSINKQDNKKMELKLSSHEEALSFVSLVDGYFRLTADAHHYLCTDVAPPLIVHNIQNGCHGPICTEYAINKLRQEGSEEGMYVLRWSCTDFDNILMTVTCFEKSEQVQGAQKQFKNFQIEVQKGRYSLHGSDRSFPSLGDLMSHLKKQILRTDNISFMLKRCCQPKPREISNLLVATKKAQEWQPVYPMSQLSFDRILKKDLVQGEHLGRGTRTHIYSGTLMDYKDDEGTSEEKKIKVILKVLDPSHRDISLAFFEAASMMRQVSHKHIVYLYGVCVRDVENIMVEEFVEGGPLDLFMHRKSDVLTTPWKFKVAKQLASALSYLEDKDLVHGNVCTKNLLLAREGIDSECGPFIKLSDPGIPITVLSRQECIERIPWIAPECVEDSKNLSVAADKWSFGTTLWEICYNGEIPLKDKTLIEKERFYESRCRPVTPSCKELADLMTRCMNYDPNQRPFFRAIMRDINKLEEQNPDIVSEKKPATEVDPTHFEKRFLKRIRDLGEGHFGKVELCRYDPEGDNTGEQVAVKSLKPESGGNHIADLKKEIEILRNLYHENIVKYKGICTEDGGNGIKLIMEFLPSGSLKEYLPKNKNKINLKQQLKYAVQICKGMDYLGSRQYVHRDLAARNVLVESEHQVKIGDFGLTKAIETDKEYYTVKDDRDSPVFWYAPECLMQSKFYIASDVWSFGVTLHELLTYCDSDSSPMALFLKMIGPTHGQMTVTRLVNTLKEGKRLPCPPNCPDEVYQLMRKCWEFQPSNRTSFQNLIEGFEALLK
Test [3] deals with human JAK2 (Homo sapiens (Human), UniProt O60674). The test can be described thus: JAK2 TR-FRET kinase assay. As to conditions: JAK2 0.025 nM. It counts as biochemical.
Chain of human JAK2 (O60674 whole entry): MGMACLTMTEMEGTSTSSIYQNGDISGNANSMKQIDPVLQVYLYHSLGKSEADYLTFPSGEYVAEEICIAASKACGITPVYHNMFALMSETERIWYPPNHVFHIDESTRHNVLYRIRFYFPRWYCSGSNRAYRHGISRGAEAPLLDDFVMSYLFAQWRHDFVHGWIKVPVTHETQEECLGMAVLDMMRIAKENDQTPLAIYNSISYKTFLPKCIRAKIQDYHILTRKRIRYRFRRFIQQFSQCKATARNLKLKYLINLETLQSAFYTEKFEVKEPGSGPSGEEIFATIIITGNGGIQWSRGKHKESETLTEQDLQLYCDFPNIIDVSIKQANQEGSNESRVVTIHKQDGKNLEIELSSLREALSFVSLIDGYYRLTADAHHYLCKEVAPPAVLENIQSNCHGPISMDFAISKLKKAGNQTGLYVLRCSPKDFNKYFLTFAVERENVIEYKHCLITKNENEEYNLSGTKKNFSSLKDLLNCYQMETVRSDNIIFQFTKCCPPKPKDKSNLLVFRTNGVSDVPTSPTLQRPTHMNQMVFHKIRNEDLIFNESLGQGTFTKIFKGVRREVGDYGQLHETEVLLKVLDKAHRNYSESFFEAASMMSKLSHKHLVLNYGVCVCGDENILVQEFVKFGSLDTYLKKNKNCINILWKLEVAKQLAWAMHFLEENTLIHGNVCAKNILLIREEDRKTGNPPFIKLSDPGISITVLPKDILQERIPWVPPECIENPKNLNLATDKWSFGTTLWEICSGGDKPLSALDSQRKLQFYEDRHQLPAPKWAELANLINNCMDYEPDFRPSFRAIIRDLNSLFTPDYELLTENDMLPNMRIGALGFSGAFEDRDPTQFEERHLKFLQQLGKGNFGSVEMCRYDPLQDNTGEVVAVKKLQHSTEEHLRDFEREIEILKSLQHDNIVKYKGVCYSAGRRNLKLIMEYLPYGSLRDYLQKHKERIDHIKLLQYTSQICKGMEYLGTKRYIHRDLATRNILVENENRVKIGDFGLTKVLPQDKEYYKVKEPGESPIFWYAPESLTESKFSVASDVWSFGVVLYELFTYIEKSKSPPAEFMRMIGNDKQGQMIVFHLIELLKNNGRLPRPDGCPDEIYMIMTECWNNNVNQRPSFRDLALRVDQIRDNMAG
For test [4], the target named is human JAK3 (Homo sapiens (Human), UniProt P52333). The test can be described thus: JAK3 TR-FRET kinase assay. The following applies: JAK3 0.0125 nM. The class given is biochemical.
Chain of human JAK3 (P52333 whole entry): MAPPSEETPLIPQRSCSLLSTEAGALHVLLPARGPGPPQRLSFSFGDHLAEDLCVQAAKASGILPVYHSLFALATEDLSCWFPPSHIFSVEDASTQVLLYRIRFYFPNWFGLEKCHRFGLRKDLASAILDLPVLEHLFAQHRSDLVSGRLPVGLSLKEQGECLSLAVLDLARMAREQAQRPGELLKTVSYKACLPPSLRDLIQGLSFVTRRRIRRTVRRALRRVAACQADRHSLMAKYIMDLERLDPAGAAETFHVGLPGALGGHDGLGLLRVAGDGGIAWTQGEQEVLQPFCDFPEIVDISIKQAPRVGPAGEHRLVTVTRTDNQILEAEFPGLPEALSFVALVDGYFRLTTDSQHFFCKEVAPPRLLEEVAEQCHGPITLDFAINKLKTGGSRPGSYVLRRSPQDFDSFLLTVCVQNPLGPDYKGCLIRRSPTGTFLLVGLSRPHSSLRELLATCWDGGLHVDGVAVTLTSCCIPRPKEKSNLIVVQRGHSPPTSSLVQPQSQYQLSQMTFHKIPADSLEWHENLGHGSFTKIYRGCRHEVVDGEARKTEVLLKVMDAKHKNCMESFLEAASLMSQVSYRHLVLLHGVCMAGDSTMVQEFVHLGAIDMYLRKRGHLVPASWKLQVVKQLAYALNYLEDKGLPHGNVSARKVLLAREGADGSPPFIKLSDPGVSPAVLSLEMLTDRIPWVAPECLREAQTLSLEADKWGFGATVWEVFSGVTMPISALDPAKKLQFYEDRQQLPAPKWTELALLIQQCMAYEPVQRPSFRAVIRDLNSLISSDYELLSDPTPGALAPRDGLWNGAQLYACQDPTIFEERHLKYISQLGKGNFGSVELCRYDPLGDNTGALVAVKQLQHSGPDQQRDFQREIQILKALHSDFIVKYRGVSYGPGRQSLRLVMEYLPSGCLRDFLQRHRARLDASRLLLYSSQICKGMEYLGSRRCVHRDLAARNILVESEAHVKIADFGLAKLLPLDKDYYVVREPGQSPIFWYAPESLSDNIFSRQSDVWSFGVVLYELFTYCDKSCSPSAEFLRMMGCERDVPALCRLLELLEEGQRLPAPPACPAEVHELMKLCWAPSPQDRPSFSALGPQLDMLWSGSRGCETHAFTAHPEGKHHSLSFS

Chain of TYK2 JH2 domain (P29597 589-875): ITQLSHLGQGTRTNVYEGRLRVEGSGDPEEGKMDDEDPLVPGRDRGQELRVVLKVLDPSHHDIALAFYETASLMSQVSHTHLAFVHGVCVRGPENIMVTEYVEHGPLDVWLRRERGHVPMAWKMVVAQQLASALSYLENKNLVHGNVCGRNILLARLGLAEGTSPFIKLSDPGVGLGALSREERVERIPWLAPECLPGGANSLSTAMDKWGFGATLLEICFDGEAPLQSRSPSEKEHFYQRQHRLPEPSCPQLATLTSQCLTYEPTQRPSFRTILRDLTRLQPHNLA

Consider `CCC(=O)c1cnc(Nc2ccc(CN(C)CC)cn2)cc1Nc1cccc(-c2ncn(C)n2)c1OC` [Compound 9U], for which the IC50 in test [1] was < 5 nM; in test [2], ≥ 500 nM; in test [3], ≥ 500 nM; in test [4], ≥ 500 nM.

In the case of `CCC(=O)c1cnc(Nc2cnc(OCCN3CCC(F)(F)C3)cn2)cc1Nc1cccc(-c2ncn(C)n2)c1OC` [Compound 18ZZ], the half-inhibitory concentration (IC50) is 5 to 50 nM in test [1], ≥ 500 nM in test [2], ≥ 500 nM in test [3] and ≥ 500 nM in test [4].

For `CCC(=O)c1cnc(Nc2ccc(-c3ncn(C)n3)cn2)cc1Nc1nccc(-c2ncn(C)n2)c1OC` [Compound 15M], the IC50 is 5 to 50 nM in test [1], ≥ 500 nM in test [2], ≥ 500 nM in test [3] and ≥ 500 nM in test [4].

For `CCC(=O)c1cnc(NC(=O)CCc2cnn(C)c2)cc1Nc1cccc(-c2ncn(C)n2)c1OC` [Compound 23F], the IC50 in test [1] was 50 to 500 nM; in test [2], ≥ 500 nM; in test [3], ≥ 500 nM; in test [4], ≥ 500 nM.

For the compound `CCC(=O)c1cnc(Nc2cc(-c3cn(C)cn3)ccn2)cc1Nc1cccc(-c2ncn(C)n2)c1OC` [Compound 15E], the IC50 was < 5 nM in test [1], ≥ 500 nM in test [2], ≥ 500 nM in test [3] and ≥ 500 nM in test [4].

For `CCC(=O)c1cnc(Nc2ccc3c(c2)COB3O)cc1Nc1cccc(-c2ncn(C)n2)c1OC` [Compound 15BB], the IC50 is 5 to 50 nM in test [1], ≥ 500 nM in test [2], ≥ 500 nM in test [3] and ≥ 500 nM in test [4].

As to `COc1c(Nc2cc(Nc3ccc(-c4cn(C)cn4)cn3)ncc2C(=O)C2CC2)cccc1-c1ncn(C)n1` [Compound 15K], the IC50 in test [1] is 5 to 50 nM; in test [2] it was ≥ 500 nM; in test [3], ≥ 500 nM; in test [4], ≥ 500 nM.

Take `CCC(=O)c1cnc(Nc2ccc(CCN3CCCC3)nn2)cc1Nc1cccc(-c2ncn(C)n2)c1OC` [Compound 11E]: the IC50 was 50 to 500 nM in test [1], ≥ 500 nM in test [2], ≥ 500 nM in test [3] and ≥ 500 nM in test [4].

On to `CCC(=O)c1cnc(Nc2cc(CN)ncn2)cc1Nc1cccc(-c2ncn(C)n2)c1OC` [Compound 9LLLL], for which the IC50 was < 5 nM in test [1], ≥ 500 nM in test [2], ≥ 500 nM in test [3] and ≥ 500 nM in test [4].

As to `CCC(=O)c1cnc(Nc2cnc(O[C@@H]3CCNC3)cn2)cc1Nc1cccc(-c2ncn(C)n2)c1OC` [Compound 18SS], the IC50 in test [1] is 5 to 50 nM; in test [2], ≥ 500 nM; in test [3], ≥ 500 nM; in test [4] it was ≥ 500 nM.

On to `CCC(=O)c1cnc(Nc2cccc(CS(C)(=O)=O)n2)cc1Nc1cccc(-c2ncn(C)n2)c1OC` [Compound 13N], for which the IC50 in test [1] is 5 to 50 nM; in test [2], ≥ 500 nM; in test [3], 50 to 500 nM; in test [4] it was 50 to 500 nM.

As for `[2H]C([2H])([2H])N1CC[C@@H](Oc2ccc(Nc3cc(Nc4cccc(-c5ncn(C)n5)c4OC)c(C(=O)CC)cn3)nc2)C1` [Compound 18X], the IC50 in test [1] was < 5 nM; in test [2] it was ≥ 500 nM; in test [3], ≥ 500 nM; in test [4], 50 to 500 nM.

As for `CCC(=O)c1cnc(Nc2ccc(S(=O)(=O)CC)cn2)cc1Nc1cccc(-c2ncn(C)n2)c1OC` [Compound 13G], the IC50 in test [1] is < 5 nM; in test [2] it was ≥ 500 nM; in test [3] it was ≥ 500 nM; in test [4], ≥ 500 nM.

Turning to `[2H]C([2H])([2H])CC(=O)c1cnc(Nc2ccn(-c3ccccc3)c(=O)n2)cc1Nc1cccc(-c2ncn(C)n2)c1OC` [Compound 15T], the IC50 was < 5 nM in test [1], ≥ 500 nM in test [2], ≥ 500 nM in test [3] and ≥ 500 nM in test [4].

Take `COc1c(Nc2cc(Nc3ccc(OCCO)cn3)ncc2C(=O)C2CC2)cccc1-c1ncn(C)n1` [Compound 18B]: the 50% inhibitory concentration (IC50) in test [1] was < 5 nM; in test [2] it was ≥ 500 nM; in test [3] it was ≥ 500 nM; in test [4] it was ≥ 500 nM.

With `CCC(=O)c1cnc(Nc2cccc(C(N)=O)n2)cc1Nc1cccc(-c2ncn(C)n2)c1OC` [Compound 8J], the IC50 is < 5 nM in test [1], ≥ 500 nM in test [2], ≥ 500 nM in test [3] and ≥ 500 nM in test [4].

Regarding `CCC(=O)c1cnc(Nc2cnc(CS(C)(=O)=O)cn2)cc1Nc1cccc(-c2ncn(C)n2)c1OC` [Compound 13U], the concentration for half-maximal inhibition (IC50) was 5 to 50 nM in test [1], ≥ 500 nM in test [2], ≥ 500 nM in test [3] and ≥ 500 nM in test [4].

On to `CCC(=O)c1cnc(Nc2cc(C(N)=O)ncn2)cc1Nc1cccc(-c2ncn(C)n2)c1OC` [Compound 8M], for which the IC50 is < 5 nM in test [1], ≥ 500 nM in test [2], ≥ 500 nM in test [3] and ≥ 500 nM in test [4].

On to `CCC(=O)c1cnc(Nc2ccc(S(C)(=O)=O)cn2)cc1Nc1ccc(CO)cc1OC` [Compound 13X], for which the IC50 in test [1] was 50 to 500 nM; in test [2] it was ≥ 500 nM; in test [3], 50 to 500 nM; in test [4] it was 50 to 500 nM.
